From the NIST ThermoML archive (doi:10.1016/j.jct.2014.08.023)

Details: Liquid, Vibrating tube method

CC(C)OC(C)C [diisopropyl ether]
mass density [kg/m3]
Details | 333.15 K | 353.19 K | 373.24 K | 393.29 K
1000 kPa | – | 659.5 | 635.5 | 609.5
5000 kPa | – | 667.5 | 645.5 | 622.1
10000 kPa | – | 676.4 | 656.1 | 634.9
15000 kPa | – | 684.4 | 665.3 | 645.7
20000 kPa | – | 691.5 | 673.4 | 655.1
25000 kPa | – | 698 | 680.8 | 663.4
30000 kPa | – | 704 | 687.6 | 671
35000 kPa | – | 709.6 | 693.8 | 677.9
40000 kPa | – | 714.8 | 699.6 | 684.3
45000 kPa | 734.7 | 719.7 | 705 | 690.2
50000 kPa | 739 | 724.5 | 710.1 | 695.7
55000 kPa | 743.1 | 728.9 | 714.9 | 701
60000 kPa | 747 | 733.1 | 719.5 | 705.9
65000 kPa | 750.8 | 737.2 | 723.9 | 710.6
70000 kPa | 754.3 | 741.1 | 728.1 | 715.1
80000 kPa | 761.2 | 748.4 | 735.9 | 723.5
90000 kPa | 767.7 | 755.3 | 743.2 | 731.3
100000 kPa | 773.6 | 761.6 | 750 | 738.3
110000 kPa | 779.3 | 767.7 | 756.3 | 745.2
120000 kPa | 784.6 | 773.4 | 762.3 | 751.3
130000 kPa | 789.8 | 778.8 | 768 | 757.4
140000 kPa | 794.7 | 784 | 773.3 | 763
